Data on ten molecules can be found in US6664241B2, “Water-soluble amide derivatives of polyene macrolides and preparation and uses thereof” (Micrologix Biotech Inc., priority 2000, dated 2003).

Molecules are shown by their SMILES. ≈ marks a conversion by molar mass, not a printed value.

Data set [1] deals with C. albicans. Description: Minimum Inhibitory Concentrations (MICs) against C. albicans, NCCLS M27-A broth dilution. It counts as cell-based. The following applies: Candida albicans, read-out: MIC. The method, then: For each compound synthesized, Minimum Inhibitory Concentrations (MICs) against C. albicans were determined as described in Reference Method for Broth Dilution Antifungal Susceptibility Testing of Yeasts, Approved Standard, NCCLS document M27-A (ISBN 1-56238-328-0), NCCLS, 940 West Valley Road, Suite 1400, Wayne, Pa. 19087, 1997.
(In general: Broth dilution looks for growth in wells or tubes with falling amounts of substance.)

Data set [2] is described as follows: Maximum non-lethal dose (NLD), single intravenous dose in mice. Conditions: test compounds as aspartate salts in 5% mannitol, AmB as FUNGIZONE
It counts as in vivo, Swiss-Webster male mice. The method, then:
(§1) A variety of the compounds synthesized as described in Section 5, supra, were tested in various in vivo assays, as described below. The results of the various assays are provided in TABLE 3, presented at the end of this section. In all of the in vivo assays described, the test compounds, in the form of the aspartate salts, were formulated in an aqueous vehicle (5% mannitol in sterile water; OSMITROL, Baxter Healthcare, Deerfield, Ill.), followed by appropriate dilutions. The formulations were prepared fresh before dosing.
(§2) AmB and AME were also tested for comparison. For AmB, the commercially available FUNGIZONE (Bristol-Meyers Squibb Co.) was used. Reported values are based upon the weight of the AmB active ingredient, not on the basis of the weight of the FUNGIZONE powder. AME was formulated in OSMITROL as described for the test compounds.
Maximum non-lethal dose (NLD) data were obtained for selected compounds. A single intravenous dose was administered to each of four mice (Swiss-Webster male mice; Simonsen Laboratories, Gilroy, Calif.) in several groups. The doses selected were based upon the NLDs of compounds of similar structures. After review of findings, higher or lower doses were administered and a NLD was determined. The results are tabulated in TABLE 3, below (NLD Acute Mice). The values for AmB and AME are provided for comparison

Data set [3] concerns C. albicans. Description: 5 day kidney bioburden evaluation in immunocompetent mice challenged with C. albicans. It counts as in vivo, Swiss-Webster mice. The following applies: Candida albicans, ip, 120 h; intraperitoneally once daily for 5 days, immunocompetent mice, C. albicans; 50% of animals with 2 log10 reduction in kidney CFU; read-out: ED50 mice 5 day. Here is the method: as §1, §2
Various polyene macrolide amide derivatives of the invention were evaluated for their protective effect when administered intraperitoneally once daily for 5 days to immunocompetent mice challenged with live C. albicans.
C. albicans was grown on Sabouraud dextrose agar (SDA) plates for 48 hr. Colonies were harvested and washed twice by centrifugation in phosphate-buffered saline (PBS). The washed pellets were resuspended in PBS and diluted to achieve the desired number of fungi per milliliter. A portion of the inoculum was plated on SDA plates to determine the colony-forming units (CFU) per milliliter.
Swiss-Webster mice (Simonsen Laboratories, Gilroy, Calif.) were administered by intravenous injection a single inoculum (0.2 mL) containing as estimated 2.0×10^5 CFU of C. albicans. The day of inoculation was designated as study day 0. Beginning three days after injection, mice were treated intraperitoneally with vehicle alone or formulated test compound once daily for 5 consecutive days.
The mice were observed daily from study day 0 through study day 10 (3 days after the last dose). Mice found dead or euthanized in extremis were removed from the study without further processing. Surviving mice were euthanized by inhalation of CO2 on study day 10 and both kidneys from each mouse were removed. Each pair of removed kidneys was homogenized in 3 mL of ice-cold PBS containing 10% glycerol. A portion of each homogenate was used to determine log10 CFU per kidney using SDA plates (48 hours of incubation at 30° C.). Kidney log10 CFU data were analyzed using a t-test. The criterion for a statistically significant response was set at p<0.01.
For comparison, the results for AmB and AME are also provided. Efficacy was defined for individual animals as a greater than 2 log10 reduction in kidney CFU relative to the mean vehicle control value.

Data set [4] can be described thus: Two week range-finding toxicity study in mice. The following applies: both sexes, CD-1, mouse, in vivo, iv. Format: in vivo, CD-1 mice. The method, then:
as §1, §2
Various polyene macrolide amide derivatives of the invention were evaluated to characterize their potential toxicity when administered subchronically by intravenous injection.
CD-1® mice (Charles River Laboratories, Portage, Mich.) were acclimated to laboratory conditions for at least 5 days before the start of dosing. During the acclimation period, the general condition of the mice was evaluated, and those considered healthy were used. The mice were randomly assigned to treatment groups using a stratified body weight regimen. Each treatment group consisted of 3 male and 3 female mice. The mice were housed in a room with a controlled environment and provided rodent chow and water ad libitum.
On the first day of dosing, the mice were approximately 7 to 9 weeks old and weighed 22 to 30 g. Doses were administered by intravenous injection once daily on study days 1 to 5 and 8 to 12. Dosages were selected based upon data from efficacy and toxicology studies, and ranged from 1.25 to 30 mg/kg/day. Clinical observations were recorded 0.5 hr after dosing on days 1, 3, 5, 8, 10, 12 and 15, and on any day a change was observed. Body weights were recorded prior to dosing and on study days 8 and 12, and on study day 15 at the completion of the in-life phase of the study.
Animals that were found in a moribund/deteriorating clinical state were euthanized (animal designated killed in extremis) by inhalation of CO2. The day of death for any animal found dead or killed in extremis was recorded. Any animal that died prematurely was removed from the study without further processing.
One day after completion of dosing (study day 16), all surviving mice were euthanized by inhalation of CO2. Their kidneys were preserved for histopathologic examination. The maximum no-observed-adverse-effect level (NOAEL) was determined on the basis of clinical and histopathologic findings. The values for AmB and AME are provided for comparison.

The term MIC denotes the least concentration at which growth counts as inhibited. As usually defined, the ED50 is the midpoint of the dose-response relation. As to `CC1[C@H](C)OC(=O)C[C@H](O)C[C@H](O)CC[C@@H](O)[C@H](O)C[C@H](O)C[C@]2(O)C[C@H](O)C(C(=O)N3CCN(Cc4ccccc4)CC3)C(C[C@@H](OC3O[C@H](C)[C@@H](O)[C@H](NC[C@@]4(O)OC[C@@H](O)[C@H](O)[C@@H]4O)[C@@H]3O)/C=C/C=C/C=C/C=C/C=C/C=C/C=C/[C@H](C)[C@H]1O)O2` (some centres unmarked) [Compound 134], in the data set with C. albicans [1], the MIC was 1 µg/mL (≈ 0.804 µM). Moreover, in data set [2], the NLD acute mice was found to be 30 mg/kg. Moreover, in the data set with C. albicans [3], the ED50 was > 30 mg/kg.
By NOAEL is commonly meant the highest dose or exposure tested at which no adverse effect was seen. Consider `CC1[C@H](C)OC(=O)C[C@H](O)C[C@H](O)CC[C@@H](O)[C@H](O)C[C@H](O)C[C@]2(O)C[C@H](O)C(C(=O)N3CCN(C)CC3)C(C[C@@H](OC3O[C@H](C)[C@@H](O)[C@H](NC[C@@]4(O)OC[C@@H](O)[C@@H](O)[C@@H]4O)[C@@H]3O)/C=C/C=C/C=C/C=C/C=C/C=C/C=C/[C@H](C)[C@H]1O)O2` (some centres unmarked) [Compound 106], for which the MIC in the data set on C. albicans [1] came to 2 µg/mL (≈ 1.71 µM). For the same molecule, the NLD acute mice in data set [2] was <15 mg/kg. In the data set with C. albicans [3], the ED50 amounted to 3 mg/kg. Besides, the NOAEL at 2 week in data set [4] (NOAEL 2 week mice clinical) is 3 mg/kg; in data set [4] (NOAEL 2 week mice histological), 6 mg/kg.
As to `CC1[C@H](C)OC(=O)C[C@H](O)C[C@H](O)CC[C@@H](O)[C@H](O)C[C@H](O)C[C@]2(O)C[C@H](O)C(C(=O)NCCCN3CCOCC3)C(C[C@@H](OC3O[C@H](C)[C@@H](O)[C@H](NC[C@@]4(O)OC[C@@H](O)[C@H](O)[C@@H]4O)[C@@H]3O)/C=C/C=C/C=C/C=C/C=C/C=C/C=C/[C@H](C)[C@H]1O)O2` (some centres unmarked) [Compound 111], the MIC in the data set with C. albicans [1] was 2.7 µg/mL (≈ 2.23 µM). For the same molecule, the NLD acute mice in data set [2] is 20 mg/kg. In addition, in the data set on C. albicans [3], the ED50 came out at 7 mg/kg. Further, the NOAEL at 2 week is < 7 mg/kg in data set [4] (NOAEL 2 week mice clinical) and 7 mg/kg in data set [4] (NOAEL 2 week mice histological).
Consider `CC1[C@H](C)OC(=O)C[C@H](O)C[C@H](O)CC[C@@H](O)[C@H](O)C[C@H](O)C[C@]2(O)C[C@H](O)C(C(=O)N3CCN(c4ccccc4)CC3)C(C[C@@H](OC3O[C@H](C)[C@@H](O)[C@H](NC[C@@]4(O)OC[C@@H](O)[C@H](O)[C@@H]4O)[C@@H]3O)/C=C/C=C/C=C/C=C/C=C/C=C/C=C/[C@H](C)[C@H]1O)O2` (some centres unmarked) [Compound 136], for which the MIC in the data set on C. albicans [1] was 0.4 µg/mL (≈ 0.325 µM). In data set [2], the NLD acute mice is recorded as >15 mg/kg. Also, the ED50 in the data set on C. albicans [3] stood at 40.2 mg/kg.
The corresponding values for `CC1[C@H](C)OC(=O)C[C@H](O)C[C@H](O)CC[C@@H](O)[C@H](O)C[C@H](O)C[C@]2(O)C[C@H](O)C(C(=O)NCC(O)C(O)C(O)C(O)CO)C(C[C@@H](OC3O[C@H](C)[C@@H](O)[C@H](NC[C@@]4(O)OC[C@@H](O)[C@@H](O)[C@@H]4O)[C@@H]3O)/C=C/C=C/C=C/C=C/C=C/C=C/C=C/[C@H](C)[C@H]1O)O2` (some centres unmarked) [Compound 103] are 1.1 µg/mL (≈ 0.88 µM), 10 mg/kg and 15 mg/kg.
As to `CC1[C@H](C)OC(=O)C[C@H](O)C[C@H](O)CC[C@@H](O)[C@H](O)C[C@H](O)C[C@]2(O)C[C@H](O)C(C(=O)N3CCN(CCO)CC3)C(C[C@@H](OC3O[C@H](C)[C@@H](O)[C@H](NC[C@@]4(O)OC[C@@H](O)[C@H](O)[C@@H]4O)[C@@H]3O)/C=C/C=C/C=C/C=C/C=C/C=C/C=C/[C@H](C)[C@H]1O)O2` (some centres unmarked) [Compound 135], in the data set on C. albicans [1], the MIC is 6.3 µg/mL (≈ 5.26 µM). Further, the NLD acute mice in data set [2] was 10 mg/kg. In addition, the ED50 in the data set with C. albicans [3] was 1.6 mg/kg. Besides, the NOAEL at 2 week in data set [4] (NOAEL 2 week mice clinical) was 1.25 mg/kg; in data set [4] (NOAEL 2 week mice histological), > 5 mg/kg.
As to `CC1[C@H](C)OC(=O)C[C@H](O)C[C@H](O)CC[C@@H](O)[C@H](O)C[C@H](O)C[C@]2(O)C[C@H](O)C(C(=O)NCCN3CCCCC3)C(C[C@@H](OC3O[C@H](C)[C@@H](O)[C@H](NC[C@@]4(O)OC[C@@H](O)[C@@H](O)[C@@H]4O)[C@@H]3O)/C=C/C=C/C=C/C=C/C=C/C=C/C=C/[C@H](C)[C@H]1O)O2` (some centres unmarked) [Compound 107], the MIC in the data set with C. albicans [1] is 2 µg/mL (≈ 1.67 µM). Also, the NLD acute mice in data set [2] is >40 mg/kg. In addition, the ED50 with C. albicans [3] stood at 28 mg/kg.
Consider `CCN1CCN(C(=O)C2C3C[C@@H](OC4O[C@H](C)[C@@H](O)[C@H](NC[C@@]5(O)OC[C@@H](O)[C@H](O)[C@@H]5O)[C@@H]4O)/C=C/C=C/C=C/C=C/C=C/C=C/C=C/[C@H](C)[C@@H](O)C(C)[C@H](C)OC(=O)C[C@H](O)C[C@H](O)CC[C@@H](O)[C@H](O)C[C@H](O)C[C@](O)(C[C@@H]2O)O3)CC1` (some centres unmarked) [Compound 133], for which the NLD acute mice in data set [2] came out at 15 mg/kg. Moreover, the ED50 with C. albicans [3] worked out at 4.1 mg/kg. Moreover, the NOAEL at 2 week in data set [4] (NOAEL 2 week mice clinical) was < 5 mg/kg.
Take `CC1[C@H](C)OC(=O)C[C@H](O)C[C@H](O)CC[C@@H](O)[C@H](O)C[C@H](O)C[C@]2(O)C[C@H](O)C(C(=O)N3CCN(C)CC3)C(C[C@@H](OC3O[C@H](C)[C@@H](O)[C@H](NC[C@@]4(O)OC[C@@H](O)[C@H](O)[C@@H]4O)[C@@H]3O)/C=C/C=C/C=C/C=C/C=C/C=C/C=C/[C@H](C)[C@H]1O)O2` (some centres unmarked) [Compound 113]: in the data set on C. albicans [1], the MIC is 3.3 µg/mL (≈ 2.82 µM). In addition, the NLD acute mice in data set [2] is 7.5 mg/kg. Further, the ED50 in the data set with C. albicans [3] came out at 2 mg/kg. Also, the NOAEL at 2 week is > 5 mg/kg in data set [4] (NOAEL 2 week mice clinical) and 1.25 mg/kg in data set [4] (NOAEL 2 week mice histological).
As for `CC1[C@H](C)OC(=O)C[C@H](O)C[C@H](O)CC[C@@H](O)[C@H](O)C[C@H](O)C[C@]2(O)C[C@H](O)C(C(=O)NCC(O)C(O)C(O)C(O)CO)C(C[C@@H](OC3O[C@H](C)[C@@H](O)[C@H](NC[C@@]4(O)OC[C@@H](O)[C@H](O)[C@@H]4O)[C@@H]3O)/C=C/C=C/C=C/C=C/C=C/C=C/C=C/[C@H](C)[C@H]1O)O2` (some centres unmarked) [Compound 110], the MIC in the data set on C. albicans [1] stood at 1 µg/mL (≈ 0.8 µM). Also, the NLD acute mice in data set [2] was 10 mg/kg. In addition, the ED50 in the data set with C. albicans [3] came out at 15 mg/kg.
